Assay results published in patent US12331040B2 (Karyopharm Therapeutics Inc., priority 2013, dated 2025).
Where two headings read alike, the source gives them in different places.

Columns and labels:
[1] = system: Z138 cells; assay: MTT cell proliferation assay; format: cell-based; conditions: Homo sapiens
Method in brief: (§1)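 5,000-10,000 cells/well, overnight attach; 8 conc., 1 nM–30 μM; MTT ~4 h; formazan solubilized, OD 490 nm; % inhibition = (1−(ODo/OD))×100 vs neg. control; mostly duplicate, mean±SE.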

[2] = system: 3T3 cells; assay: MTT cell proliferation assay; format: cell-based; conditions: Mus musculus
Method in brief: as §1

[3] = system: MS751 cells; assay: MTT cell proliferation assay; format: cell-based; conditions: Homo sapiens
Method in brief: as §1

[4] = system: MRC-5 cells; assay: MTT cell proliferation assay; format: cell-based; conditions: Homo sapiens, MRC5; MRC-5 cell line
Method: (§2) The MTT cell proliferation assay was used to study the cytotoxic properties of the compounds. The assay was performed according to the method described by Roche Molecular Biochemicals, with minor modifications. The assay is based on the cleavage of the tetrazolium salt, MTT, in the presence of an electron-coupling reagent. The water-insoluble formazan salt produced must be solubilized in an additional step. Cells grown in a 96-well tissue culture plate were incubated with the MTT solution for approximately 4 hours. After this incubation period, a water-insoluble formazan dye formed. After solubilization, the formazan dye was quantitated using a scanning multi-well spectrophotometer (ELISA reader). […] The cells were seeded at 5,000-10,000 cells in each well of 96-well plate in 100 μL of fresh culture medium and were allowed to attach overnight. The stock solutions of the compounds were diluted in 100 μL cell culture medium to obtain eight concentrations of each test compound, ranging from 1 nM to 30 μM. […] All optical densities were measured at 490 nm using a Vmax Kinetic Microplate Reader (Molecular Devices). In most cases, the assay was performed in duplicate and the results were presented as a mean percent inhibition to the negative control±SE. The following formula was used to calculate the percent of inhibition: Inhibition (%)=(1−(ODo/OD))×100.
(§3) The M24 cell line is derived from human melanoma cells. The U2OS cell line is a human osteosarcoma cell line expressing wild type p53 and Rb, but lacking p16. The MM1S cell line is a multiple myeloma cell line; the parent cell line, MM.1, was established from peripheral blood of a multiple myeloma patient who had become resistant to steroid-based therapy. The RPMI8226 cell line is derived from human B lymphocyte cells. NHDF cells are normal human dermal fibroblast cells. The MRC-5 cell line is derived from normal lung tissue of a fetus. The PC3 cell line is a human prostate cancer cell line. The DU-145 cell line is a human prostate cancer cell line. The MDA-MB-231 cell line is a human breast adenocarcinoma cell line. The MDA-MB-468 cell line is a human breast carcinoma cell line. HL-60 cells are human promyelocytic leukemia cells. Hep G2 cells are human hepatocellular carcinoma cells. HEP 3B cells are human hepatocellular carcinoma cells. The DLD-1 cell line is a colorectal adenocarcinoma cell line. The HCT-15 cell line is a human colon carcinoma cell line. The Colo-205 cell line is derived from a human adenocarcinoma of the colon. The LoVo cell line is a human colon adenocarcinoma cell line.

[5] = system: Hep G2 cells; assay: MTT cell proliferation assay; format: cell-based; conditions: Homo sapiens, HepG2; Hep G2 cell line; read-out: MTT Assay IC50, Hep G2
Method: as §2, §3

[6] = system: HEP 3B cells; assay: MTT cell proliferation assay; format: cell-based; conditions: Homo sapiens, Hep3B; HEP 3B cell line; read-out: MTT Assay IC50, HEP 3B
Method: as §2, §3

[7] = system: RPMI8226 cells; assay: MTT cell proliferation assay; format: cell-based; conditions: Homo sapiens, RPMI-8226
Method: as §2, §3

[8] = system: HL-60 cells; assay: MTT cell proliferation assay; format: cell-based; conditions: Homo sapiens
Method: as §2, §3

[9] = system: MM1S cells; assay: MTT cell proliferation assay; format: cell-based; conditions: Homo sapiens, MM1.S
Method: as §2, §3

[10] = system: MDA-MB-468 tumors; assay: Antibody staining of resected MDA-MB-468 tumors from treated mice; format: in vivo, mouse; conditions: mice bearing MDA-MB-468 tumors; 30 mg/kg orally every day for three weeks
Method: Mice bearing MDA-MB-468 tumors were treated for three weeks with 30 mg/kg Compound 525 orally every day. Tumors were resected from the mice and fixed in buffered formalin and put into paraffin blocks. The blocks were sectioned and stained with antibodies against Ki67, Apotag, c-Myc, p-S473-Akt1 or p-S450-Akt1. The cells were imaged with a Nikon microscope.

[11] = system: Molt-4 xenografts; assay: Molt-4 T-ALL xenograft in SCID mice; format: in vivo, mouse; conditions: 100 mg/kg PO twice daily (BID)
Method: In this study, the impact of Compounds 667 and 728 on tumor growth was tested using the Molt-4 T-ALL cancer xenograft model in SCID mice. MOLT-4 (CRL-1582) acute lymphoblastic leukemia cells were obtained from ATCC. These cells were grown in RPMI-1640 medium supplemented with 10% fetal bovine serum, 1% penicillin and streptomycin. Cells were sub-cultured by transferring floating cells to a new flask and trypsinizing adherent cells before subculturing at a ratio of 1:4. Molt-4 cells were harvested by centrifugation and counted using a hemocytometer. Cells were resuspended in PBS at a 5×10^7 cells per mL. Cells were placed on ice and mixed with an equal volume of Matrigel (BD Biosciences CB-40234). This mixture was kept on ice and injected into the left flank of mice in a volume of 0.2 mL, equivalent to 5×10^6 cells per mouse. Twenty-four (24) CB-17 SCID mice were inoculated subcutaneously in the left flank with the Molt-4 cells. Treatment was initiated when the tumors reached a mean volume of approximately 100 mm^3. Mice were allocated to three (3) groups of eight (8) mice. Mice were treated with vehicle, Compound 667 or Compound 728. Compounds 667 and 728 (100 mg/kg) were given orally (PO) twice daily (BID) beginning on Day 1. Animal weights and conditions were recorded daily, and tumors were measured on Mondays, Wednesdays and Fridays.

[12] = Z-138, Z138 cells, approximately 64-72 hours incubation, read-out: MTT Assay IC50 Z-138
[13] = NIH3T3, approximately 64-72 hours incubation, read-out: MTT Assay IC50 3T3
[14] = MS751, MS751 cells, approximately 64-72 hours incubation, read-out: MTT Assay IC50 MS-751
[15] = Z-138, Z138 cells, approximately 64-72 hours incubation, read-out: MTT Assay IC50, Z-138
[16] = NIH3T3, approximately 64-72 hours incubation, read-out: MTT Assay IC50, 3T3
[17] = MS751, MS751 cells, approximately 64-72 hours incubation, read-out: MTT Assay IC50, MS-751

`Nc1ccc(/C=C/C(=O)NCc2cc3cc(-c4ccc(C(=O)N5CCOCC5)cc4)cc(Cl)c3o2)cn1` [Compound 502, (E)-3-(6-aminopyridin-3-yl)-N-((7-chloro-5-(4-(morpholine-4-carbonyl)phenyl)benzofuran-2-yl)methyl)acrylamide] showed an IC50 [1, 12] of 100 to 5000 nM, an IC50 [2, 13] of over 10 µM and an IC50 [3, 14] of 100 to 5000 nM. For the same compound, the IC50 [4] was 100 to 5000 nM, the IC50 [5] was 100 to 5000 nM and the IC50 [6] was 100 to 5000 nM.

In the case of `Nc1ccc(/C=C/C(=O)NCc2cc3cc(-c4ccc(C(=O)N5CC[C@H](F)C5)cc4)cc(C(F)(F)F)c3o2)cn1` [Compound 525, (S,E)-3-(6-aminopyridin-3-yl)-N-((5-(4-(3-fluoropyrrolidine-1-carbonyl)phenyl)-7-(trifluoromethyl)benzofuran-2-yl)methyl)acrylamide], the IC50 ([1]; Z-138, 72 h, Z-138 cells, 72-hour MTT, read-out: Z-138 MTT IC50) is reported as 100 nM, the IC50 [1, 12] is reported as 100 to 5000 nM and the IC50 ([2]; NIH3T3, 72-hour MTT, read-out: 3T3 MTT IC50) is reported as over 10 µM. The IC50 [2, 13] was over 10 µM, the IC50 ([3]; MS751, 72 h, MS751 cells, 72-hour MTT, read-out: MS751 MTT IC50) was 300 nM and the IC50 [3, 14] was 100 to 5000 nM. For the same compound, the IC50 ([7]; RPMI8226 cell line, read-out: MTT Assay IC50, RPMI8226) was 100 to 5000 nM, the IC50 ([7]; RPMI8226 cells, 72-hour MTT, read-out: RPMI8226 MTT IC50) was 430 nM and the IC50 ([8]; HL-60 cell line, read-out: MTT Assay IC50, HL-60) was 100 to 5000 nM. For the same compound, the IC50 ([8]; HL-60 cells, 72-hour MTT, read-out: HL-60 MTT IC50) was 1060 nM, the IC50 ([9]; MM1S cell line, read-out: MTT Assay IC50, MM1S) was 100 to 5000 nM and the IC50 ([9]; MM1S cells, 72-hour MTT, read-out: MM1S MTT IC50) was 310 nM. For the same compound, the “PAK4 pathway signaling through Akt (phospho-Akt1) in tumors” value [10] was “overall reductions”, the “apoptosis (Apotag) in tumors” value [10] was “increase” and the c-Myc in tumors [10] was “overall reductions”. The “proliferation (Ki67) in tumors” value [10] was “reduction”.

Work on `Nc1ccc(/C=C/C(=O)NCc2cc3cc(-c4ccc(C(=S)N5CCC(F)(F)CC5)cn4)cc(C(F)(F)F)c3o2)cn1` [Compound 667, (E)-3-(6-aminopyridin-3-yl)-N-((5-(5-(4,4-difluoropiperidine-1-carbonothioyl)pyridin-2-yl)-7-(trifluoromethyl)benzofuran-2-yl)methyl)acrylamide] yielded an IC50 [1, 15] of under 100 nM, an IC50 [2, 16] of over 10 µM and an IC50 [3, 17] of under 100 nM. The “median tumor volume of Molt-4 xenografts (as a percentage of pre-dose tumor volume)” value [11] was “tumor growth inhibition”.

`Nc1ccc(/C=C/C(=O)NCc2cc3cc(-c4ccc(C(=O)N5CCC(F)(F)CC5)cc4)cc(-c4ccc(F)cc4)c3o2)cn1` [Compound 728, (E)-3-(6-aminopyridin-3-yl)-N-((5-(4-(4,4-difluoropiperidine-1-carbonyl)phenyl)-7-(4-fluorophenyl)benzofuran-2-yl)methyl)acrylamide] gave an IC50 [1, 15] of under 100 nM, an IC50 [2, 16] of 0.1 to 5 µM and an IC50 [3, 17] of under 100 nM. For the same compound, the “median tumor volume of Molt-4 xenografts (as a percentage of pre-dose tumor volume)” value [11] was “tumor growth inhibition”.
